Measurements from patent US7498292B2, “Combinatorial libraries of autoinducer analogs, autoinducer agonists and antagonists, and methods of use thereof” (The Research Foundation of State University of New York, priority 2002, dated 2009).
“Also recorded” adds a separate entry of the source.

Legend:
[1] = biological target: T1, LasR (Pseudomonas aeruginosa, UniProt P25084); experiment: lasI-gfp reporter antagonist (competition against AI1) assay, PAO-JP2 (plasI-LVAgfp); assay type: cell-based, P. aeruginosa; details: 100-fold excess concentration over AI1 (1 μM AI1)
T1 construct: endogenous in cells; host or cells: P. aeruginosa PAO-JP2 (lasI, rhlI) harboring plasI-LVAgfp
T1 sequence (P25084 whole entry): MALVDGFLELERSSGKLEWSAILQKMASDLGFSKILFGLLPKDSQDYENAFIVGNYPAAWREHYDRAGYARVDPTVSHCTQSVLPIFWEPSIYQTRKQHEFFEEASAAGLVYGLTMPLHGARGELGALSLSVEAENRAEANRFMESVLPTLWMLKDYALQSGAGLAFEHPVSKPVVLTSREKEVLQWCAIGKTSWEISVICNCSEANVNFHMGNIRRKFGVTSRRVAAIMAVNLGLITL
Method: (§1) P. aeruginosa strain PAO-JP2 (lasI, rhlI) (Rahme et al., Science 268:1899-1902 (1995), which is hereby incorporated by reference in its entirety) harboring plasI-LVAgfp (Pearson et al., Proc. Natl Acad. Sci. USA 91:197-201 (1994), which is hereby incorporated by reference in its entirety) was grown at 37° C. in LB with 300 μg/ml carbenicillin. For agonist assays, an overnight culture was diluted to an OD600 of 0.1 and transferred to wells of a 96-well plate on which test compounds had previously been added and dried. The final concentration of each analog tested was roughly 400 μM, although this is an overestimate due to purity issues. Cells were then incubated for 6 hours at 37° C. with vigorous shaking. GFP expression was detected with a Molecular Imager (BioRad) (488 nm excitation and 695 nm bandpass filter) and quantified with ImageQuant software. The OD600 of cultures was determined to normalize GFP expression to cell density.
The methods were the same as described in Example 2 (GFP Reporter Assay), except that 1 μM AI1 was added to each well in combination with the library compound. The fluorescence/OD600 of each compound competing against AI1 was reported relative to the fluorescence/OD600 of the positive control of AI1 alone, which was set to 1. When strain PAO-JP2 (prhlI-LVAgfp) was used, the positive control was 1 μM AI1 and 10 μM AI2. Eight compounds that inhibited reporter gene expression by greater than 50% were identified (see, e.g., FIG. 6).
(§2) Reporter strains were grown overnight in LB plus 300 μg/ml carbenicillin at 37° C. and diluted to an OD600 of 0.1. Following an incubation of 1 hour, 200 μl of cell culture was added to individual wells of a 96 well plate containing appropriate amount of test compound(s). Plates were incubated for 6 hours and then scanned for fluorescence emission with a Molecular Imager (488 nm excitation and 695 nm bandpass filter). Fluorescence was quantified with ImageQuant software.

[2] = test system: Elastase B; experiment: elastase (Elastin Congo Red) assay, wild type strain PAO1; assay type: cell-based, P. aeruginosa PAO1; details: wild type PAO1, no exogenous autoinducers
Method: (§3) Pyocyanin, elastase, and biofilm were assayed as previously described (Smith et al., Chem. Biol. 10:81-89 (2003), which is hereby incorporated by reference in its entirety). Elastase activity produced by P. aeruginosa in the presence of AIs and competing 3-oxo-C12-D10 was determined by measuring breakdown of the substrate Elastin Congo Red.
(§4) For the elastase B assay, cells (PAO-JP2) were grown overnight in PTSB media (5% Peptone, 0.1% Tryptic Soy Broth) at 37° C., washed and diluted to an OD600 of 0.05, grown to mid-log phase, washed again, and re-suspended to an OD600 of 0.05. The culture was then added to test tubes containing test compound(s) and grown for 6 hours. Elastase B activity was quantified by incubation of 100 μl of filtered culture supernatant with 5 mg Elastin Congo Red substrate and 1 ml of 10 mM Tris pH 7.2, 1 mM CaCl2 for 6 hours at 37° C. with agitation. Elastase B activity is represented by the OD495 of the enzyme assay following reaction quenching with EDTA and centrifugation to remove unreacted substrate, divided by the OD600 of the cell culture. The same assay was run with strain PAO-1, however no exogenous autoinducers were added.

[3] = test system: pyocyanin; experiment: pyocyanin assay, wild type strain PAO1; assay type: cell-based, P. aeruginosa PAO1; details: wild type PAO1, no AIs added
Method: (§5) For the pyocyanin assay, cells were grown overnight in LB then washed in fresh media and diluted to an OD600 of 0.05. This culture was grown for 3-4 hours to mid-log phase (OD600 of 0.3-0.5), then diluted to an OD600 of 0.05, and aliquoted to test tubes containing an appropriate amount of test compound(s). Following 18 hours of growth, pyocyanin was extracted from filtered culture supernatants and quantified using standard methods (Essar et al., J. Bacteriol. 172:884-900 (1990), which is hereby incorporated by reference in its entirety).

[4] = test system: Elastase B; experiment: elastase (Elastin Congo Red) assay, strain PAO-JP2; assay type: cell-based, P. aeruginosa PAO-JP2; details: PAO-JP2, 5 μM AI1 and 10 μM AI2
Method: as §3, §4

[5] = test system: P. aeruginosa; experiment: cell growth in the reporter assay; assay type: cell-based; details: concentrations up to 400 μM
Method: Based on the above hypothesis, a competition assay of 2 and 3 against AI1, using strain PAO-JP2 (plasI-LVAgfp), was performed. […] It should be noted that this inhibition experiment was performed with competition against 1 μM AI1, a concentration typically produced by wild type P. aeruginosa (Pearson et al., Proc. Natl Acad. Sci. USA 92:1490-1494 (1995), which is hereby incorporated by reference in its entirety). […] It should also be noted that cell growth was not affected by the addition of 2 or 3 at concentrations up to 400 μM. Thus, it appears that compounds 2 and 3 act as specific inhibitors of QS controlled promoters. Compound 6 was also tested for its ability to compete against AI2, but no inhibition of the rhlI-gfp reporter gene was seen.

[6] = test system: pyocyanin; experiment: pyocyanin assay, strain PAO-JP2; assay type: cell-based, P. aeruginosa PAO-JP2; details: PAO-JP2, 25 μM each of AI1 and AI2; not concentration dependent over the range tested
Method: as §5

[7] = biological target: T1, LasR; experiment: lasI-gfp reporter agonist assay, PAO-JP2 (plasI-LVAgfp); assay type: cell-based, P. aeruginosa; details: PAO-JP2 (plasI-LVAgfp), compounds made in solution phase, increasing concentrations (1, 100, 400 μM)
Source text: Since this strain lacks the ability to produce natural AIs due to disruption of both AI synthase genes, activation of LasR relies on the addition of exogenous AI1. Expression of gfp (encoding green fluorescent protein) is under control of the LasR-AI1 inducible lasI promoter, allowing rapid screening for LasR agonists by measuring the level of GFP expression in their presence.
as §1, §2

[8] = biological target: T2, RhlR (Pseudomonas aeruginosa, UniProt P54292); details: 4-fold excess, in E. coli; cited from earlier work
T2 construct: an RhlR-AI2 controlled rhlI-gfp reporter, PAO-JP2 (prhlI-LVAgfp); endogenous in cells; host or cells: P. aeruginosa PAO-JP2 (prhlI-LVAgfp)
T2 sequence (P54292 whole entry): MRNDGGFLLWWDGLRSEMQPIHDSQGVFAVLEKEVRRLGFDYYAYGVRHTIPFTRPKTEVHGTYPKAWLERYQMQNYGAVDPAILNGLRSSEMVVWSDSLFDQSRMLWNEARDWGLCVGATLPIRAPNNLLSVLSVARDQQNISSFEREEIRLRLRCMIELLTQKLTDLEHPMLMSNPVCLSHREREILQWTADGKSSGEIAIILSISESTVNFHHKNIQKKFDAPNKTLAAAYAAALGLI

[9] = biological target: T1, LasR; experiment: lasB-lacZ reporter assay, E. coli MG4 (pKDT37); assay type: cell-based, P. aeruginosa; details: E. coli MG4 (pKDT37), 6 hour incubation
Method: E. coli strain MG4 (pKDT37) was grown overnight in Supplemented A media with 100 μg/mL ampicillin at 30° C. and diluted 1:100 in the same media. 1 mL of this culture was added to a test tube containing AI1 or 3-oxo-C12-D12 that had been previously aliquoted and dried. Following a 6 hour incubation at 30° C., β-galactosidase activity was determined using standard methods (Platt et al., Assays of the lac operon Enzymes In: Experiments in Molecular Genetics, Cold Spring Harbor Laboratory Press, Cold Spring Harbor, N.Y., pp. 352-355 (1972), which is hereby incorporated by reference in its entirety).
One of the new agonist structures identified from the library, D12, is 2-aminocyclohexanol (FIG. 5B). […] 3-oxo-C12-D12, containing the natural side chain, was synthesized in solution phase, and tested with both the lasI-gfp reporter as well as a lasB-lacZ reporter in Escherichia coli. E. coli strain MG4 harboring plasmid pKDT37 expresses lasR and contains a lacZ reporter gene controlled by a LasR-AI1 inducible lasB promoter (Passador et al., J. Bacteriol. 178:5995-6000 (1996), which is hereby incorporated by reference in its entirety). […] It also provides strong evidence that the agonist activity in P. aeruginosa is LasR dependent.

[10] = test system: lasB promoter; details: 320 μM furanone competing with 0.1 μM AI1; cited from earlier work

With CCCCCCCCCC(=O)CC(=O)N[C@@H]1CCC[C@H]1O (racemic) [Compound 2, N-(trans-2-hydroxycyclopentyl)-3-oxododecanamide] the “inhibition of GFP expression (lasI-gfp)” value [1] was “approximately 70%”, the “effect on elastase activity” value [2] was “no significant effect” and the “effect on pyocyanin production” value [3] was “no significant effect”. The “effect on elastase activity” value [4] was “no significant effect”, the “effect on cell growth” value [5] was “not affected” and the “reduction of pyocyanin expression” value [6] was 50%.

In the case of CCCCCCCCCC(=O)CC(=O)N[C@H]1CCOC1=O [AI1, N-(3-oxododecanoyl)-L-homoserine lactone, reference compound], the “agonist activity (induction of lasI-gfp reporter)” value [7] is listed as “activated; also recorded: Strong QS induction”, the “reduction of binding of AI2 to RhlR” value [8] is listed as 86% and the “lasB-lacZ reporter activation (beta-galactosidase activity)” value [9] is listed as “activated”.

For O=C1C=C(Br)/C(=C/Br)O1 [furanone], the “inhibition (antagonist activity)” value [10] is given as “Approximately 50%”.
